Measurements reported in patent US8450306B2, “Bradykinin B1-receptor antagonists” (Boehringer Ingelheim International GmbH, priority 2007, dated 2013).

Target: T1, hBK1 receptor (Homo sapiens, UniProt P46663)
T1 construct: expressed in transfected cells; host or cells: CHO cells (membrane homogenate)
T1 sequence (P46663 1-353): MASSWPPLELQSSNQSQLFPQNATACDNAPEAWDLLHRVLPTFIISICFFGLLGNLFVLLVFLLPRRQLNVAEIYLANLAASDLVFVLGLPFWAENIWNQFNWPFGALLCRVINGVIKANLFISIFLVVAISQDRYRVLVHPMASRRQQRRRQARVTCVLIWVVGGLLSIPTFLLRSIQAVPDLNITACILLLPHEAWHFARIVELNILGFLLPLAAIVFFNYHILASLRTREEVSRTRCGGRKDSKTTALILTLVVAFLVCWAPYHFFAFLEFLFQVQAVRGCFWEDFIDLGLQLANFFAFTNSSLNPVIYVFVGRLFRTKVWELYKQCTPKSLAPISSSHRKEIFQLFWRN
Assay: hBK1 receptor binding
Conditions: membranes of CHO cells expressing the hBK1 receptor; radioligand 0.5 to 1.0 nM kallidin (DesArg10, Leu9), [3,4-prolyl-3,43H(N)]; 60 minutes, room temperature
Description: Description of the Method of hBK1 Receptor Binding
CHO cells expressing the hBK1 receptor are cultivated in Dulbecco's modified medium. The medium from confluent cultures is removed and the cells are washed with PBS buffer, scraped off and isolated by centrifugation. The cells are then homogenized in suspension and the homogenate is centrifuged and resuspended. The protein content is determined and the membrane preparation obtained in this manner is then frozen at −80° C.
After thawing, 200 μl of the homogenate (50 to 100 μg of proteins/assay) are incubated at room temperature with 0.5 to 1.0 nM of kallidin (DesArg10, Leu9), [3,4-prolyl-3,43H(N)] and increasing concentrations of the test substance in a total volume of 250 μl for 60 minutes. The incubation is terminated by rapid filtration through GF/B glass fibre filters which had been pretreated with polyethyleneimine (0.3%). The protein-bound radioactivity is measured in a TopCount NXT. Non-specific binding is defined as radioactivity bound in the presence of 1.0 μM of kallidin (DesArg10, Leu9), [3,4-prolyl-3,43H(N)]. The concentration/binding curve is analysed using a computer-assisted nonlinear curve fitting. The K which corresponds to the test substance is determined using the data obtained in this manner. […]

`COc1cc(C)c(S(=O)(=O)N(C)CCOCC(=O)N(C)[C@@H]2CCN(C3CCN(C)CC3)C2)c(C)c1` [(394)] showed a Ki of 1.04 nM.
